Source: publication PMC12281424, “A Rac-specific competitive inhibitor of guanine nucleotide binding reduces metastasis in triple-negative breast cancer” (Cell Reports Medicine, 2025)

Experiments:
MDA-MB-468 Luc cells = test: Orthotopic breast cancer (TNBC xenograft) model; type: in vivo, mouse; conditions: 25 mg/kg/day i.p.
Procedure: The anti-metastatic potential of A41 was assessed in a TNBC xenograft model by orthotopic injection of MDA-MB-468 Luc cells into the mammary fat pad of […] Nordic Medical Research Institute (NMRI) nude mice randomized in 2 groups. The tumor grows gradually over time. At the 50th day post grafting, when a volume of ∼1,000 mm^3 was reached, the tumor was resected, which corresponded to tumor mass of approximately 0.6 g (Figure S8A). Mice were then treated with A41 (25 mg/kg/day, intraperitoneally; group 2) or vehicle for 4 weeks (group 1).
Figure 6 A41 decreases metastasis of TNBC cells in vivo (A) Representative images of luciferase bioluminescence intensities (BLI) in whole body, legs, and ovaries/uterus 4 weeks after resection of MD1-MB-468 Luc tumor in NMRI nude mice not treated (control) and treated with A41 (25 mg/kg/day, intraperitoneally for 4 weeks). (B) Metastasis frequency quantification based on ex vivo BLI measurements in indicated organs from control (black bars) and A41-treated mice 4 weeks after tumor resection (white bars) (N = 10–15 mice; ∗p < 0.05 vs. controls). (C) BLI quantification in legs and ovaries/uterus from control (black squares) and A41-treated (white squares) NMRI nude mice 4 weeks after tumor resection (N = 10–15 mice; ∗p < 0.05 vs. controls). (D) Cumulative proportion of immunocompetent control (red) and A41-treated mice (blue) displaying regrowth of the primary tumor after its resection. (E) Metastasis frequency quantified from ex vivo BLI measurements in leg bones, lungs, kidneys, and ovaries/uterus from immunocompetent control (black bar) and A41-treated (white bar) mice (N = 10 mice; ∗p < 0.05 vs. control). (F) Survival curve of immunocompetent control (red) and A41-treated mice (blue) after primary tumor resection (day 0).
Orthotopic cell xenograft was performed by injection of 4 million MDA-MB-468Luc cells in the fourth fat pad from 5-week-old NMRI nude mice. Primary tumour was allowed to develop during 5 weeks and tumour growth was assessed by tumour volume measurement using a caliper. Primary tumor was then removed by surgical exeresis and weighed. Treatments began 1 day before exeresis. A41 (25 mg/kg) was administered intraperitoneally on a daily basis during 4 weeks. Mice were weighed 5 times a week and in vivo bioluminescence intensities were measured once a week (Imager PerkinElmer IVIS spectrum bioluminescence imager). At the end of the protocol, mice were sacrificed and ex vivo bioluminescence intensities of indicated organs (legs, ovaries, uterus, lungs and liver) were measured within 15 min of D-luciferin intraperitoneal injection (150 mg kg−1). Photons emitted by cancer cells were counted by bioluminescent imaging and expressed in counts per minute (c.p.m.).

Melanocortin MC4 = Melanocortin MC4 (Homo sapiens, UniProt P32245); test: Safety screen; type: binding
Procedure: Blood cell counts, kinase profiler, safety screen, bacterial cytotoxicity, Ames, micronucleus assays were performed by the company Eurofins (France).

ARK5(h) = ARK5(h) (Homo sapiens, UniProt O60285); test: Kinase Profiler; type: biochemical
Procedure: (§1) Blood cell counts, kinase profiler, safety screen, bacterial cytotoxicity, Ames, micronucleus assays were performed by the company Eurofins (France). The kinase profiler was performed by the company Eurofins (Discovery, Panlab and Cerep).

Blk(m) = Blk(m) (Mus musculus, UniProt P16277); test: Kinase Profiler; type: biochemical
Procedure: as §1

CDK1/cyclinB(h) = CDK1/cyclinB(h) (Homo sapiens, UniProt P06493); test: Kinase Profiler; type: biochemical
Procedure: as §1

CDK2/cyclinE(h) = CDK2/cyclinE(h) (Homo sapiens, UniProt P24941); test: Kinase Profiler; type: biochemical
Procedure: as §1

CRIK(h) = CRIK(h) (Homo sapiens, UniProt O14578); test: Kinase Profiler; type: biochemical
Procedure: (§2) The kinase profiler was performed by the company Eurofins (Discovery, Panlab and Cerep).

DCAMKL3(h) = DCAMKL3(h) (Homo sapiens, UniProt Q9C098); test: Kinase Profiler; type: biochemical
Procedure: as §1

DYRK1B(h) = DYRK1B(h) (Homo sapiens, UniProt Q9Y463); test: Kinase Profiler; type: biochemical
Procedure: as §2

EphA1(h) = EphA1(h) (Homo sapiens, UniProt P21709); test: Kinase Profiler; type: biochemical
Procedure: as §2

FGFR1(h) = FGFR1(h) (Homo sapiens, UniProt P11362); test: Kinase Profiler; type: biochemical
Procedure: as §2

Flt1(h) = Flt1(h) (Homo sapiens, UniProt P17948); test: Kinase Profiler; type: biochemical
Procedure: as §2

IKKα(h) = IKKα(h) (Homo sapiens, UniProt O15111); test: Kinase Profiler; type: biochemical
Procedure: as §1

Mnk2(h) = Mnk2(h) (Homo sapiens, UniProt Q9HBH9); test: Kinase Profiler; type: biochemical
Procedure: as §2

PKD2(h) = PKD2(h) (Homo sapiens, UniProt Q9BZL6); test: Kinase Profiler; type: biochemical
Procedure: as §2

PRAK(h) = PRAK(h) (Homo sapiens, UniProt Q8IW41); test: Kinase Profiler; type: biochemical
Procedure: as §1

SAPK4(h) = SAPK4(h) (Homo sapiens, UniProt O15264); test: Kinase Profiler; type: biochemical
Procedure: as §2

TAF1L(h) = TAF1L(h) (Homo sapiens, UniProt Q8IZX4); test: Kinase Profiler; type: biochemical
Procedure: as §2

TLK2(h) = TLK2(h) (Homo sapiens, UniProt Q86UE8); test: Kinase Profiler; type: biochemical
Procedure: as §2

ZAK(h) = ZAK(h) (Homo sapiens, UniProt Q9NYL2); test: Kinase Profiler; type: biochemical
Procedure: as §2

RHOA = RHOA (Homo sapiens, UniProt P61586); test: Surface plasmon resonance; type: binding; parameters: purchased Cytoskeleton RC01; conditions: A41 0 to 25 μM
Procedure: SPR immobilization was performed at 25°C. RAC1, RHOA and CDC42 purified proteins (respectively […] and CD01, Cytoskeleton) were diluted to 5 μg/mL in Na^+ acetate buffer (pH 5.0) and injected into sensor chip CM5 (GE Healthcare) in a Biacore T200 (GE Healthcare) that was activated with NHS/EDC buffer. Approximately 5,000 response units of the purified protein were immobilized on the biosensor chip. Biosensor chips were blocked by an injection of 1 mM ethanolamine (pH 8.5). SPR analysis was performed at 25°C in HBSEP running buffer (5% DMSO) with or without EDTA (20 mM). A41 compound was injected over the RAC1, RHOA or CDC42 functionalized surface in concentration range from 0 to 25μM. Association and dissociation phases were monitored during 60s and 300s, respectively.

TAF1L(h), sequence (Q8IZX4 whole entry): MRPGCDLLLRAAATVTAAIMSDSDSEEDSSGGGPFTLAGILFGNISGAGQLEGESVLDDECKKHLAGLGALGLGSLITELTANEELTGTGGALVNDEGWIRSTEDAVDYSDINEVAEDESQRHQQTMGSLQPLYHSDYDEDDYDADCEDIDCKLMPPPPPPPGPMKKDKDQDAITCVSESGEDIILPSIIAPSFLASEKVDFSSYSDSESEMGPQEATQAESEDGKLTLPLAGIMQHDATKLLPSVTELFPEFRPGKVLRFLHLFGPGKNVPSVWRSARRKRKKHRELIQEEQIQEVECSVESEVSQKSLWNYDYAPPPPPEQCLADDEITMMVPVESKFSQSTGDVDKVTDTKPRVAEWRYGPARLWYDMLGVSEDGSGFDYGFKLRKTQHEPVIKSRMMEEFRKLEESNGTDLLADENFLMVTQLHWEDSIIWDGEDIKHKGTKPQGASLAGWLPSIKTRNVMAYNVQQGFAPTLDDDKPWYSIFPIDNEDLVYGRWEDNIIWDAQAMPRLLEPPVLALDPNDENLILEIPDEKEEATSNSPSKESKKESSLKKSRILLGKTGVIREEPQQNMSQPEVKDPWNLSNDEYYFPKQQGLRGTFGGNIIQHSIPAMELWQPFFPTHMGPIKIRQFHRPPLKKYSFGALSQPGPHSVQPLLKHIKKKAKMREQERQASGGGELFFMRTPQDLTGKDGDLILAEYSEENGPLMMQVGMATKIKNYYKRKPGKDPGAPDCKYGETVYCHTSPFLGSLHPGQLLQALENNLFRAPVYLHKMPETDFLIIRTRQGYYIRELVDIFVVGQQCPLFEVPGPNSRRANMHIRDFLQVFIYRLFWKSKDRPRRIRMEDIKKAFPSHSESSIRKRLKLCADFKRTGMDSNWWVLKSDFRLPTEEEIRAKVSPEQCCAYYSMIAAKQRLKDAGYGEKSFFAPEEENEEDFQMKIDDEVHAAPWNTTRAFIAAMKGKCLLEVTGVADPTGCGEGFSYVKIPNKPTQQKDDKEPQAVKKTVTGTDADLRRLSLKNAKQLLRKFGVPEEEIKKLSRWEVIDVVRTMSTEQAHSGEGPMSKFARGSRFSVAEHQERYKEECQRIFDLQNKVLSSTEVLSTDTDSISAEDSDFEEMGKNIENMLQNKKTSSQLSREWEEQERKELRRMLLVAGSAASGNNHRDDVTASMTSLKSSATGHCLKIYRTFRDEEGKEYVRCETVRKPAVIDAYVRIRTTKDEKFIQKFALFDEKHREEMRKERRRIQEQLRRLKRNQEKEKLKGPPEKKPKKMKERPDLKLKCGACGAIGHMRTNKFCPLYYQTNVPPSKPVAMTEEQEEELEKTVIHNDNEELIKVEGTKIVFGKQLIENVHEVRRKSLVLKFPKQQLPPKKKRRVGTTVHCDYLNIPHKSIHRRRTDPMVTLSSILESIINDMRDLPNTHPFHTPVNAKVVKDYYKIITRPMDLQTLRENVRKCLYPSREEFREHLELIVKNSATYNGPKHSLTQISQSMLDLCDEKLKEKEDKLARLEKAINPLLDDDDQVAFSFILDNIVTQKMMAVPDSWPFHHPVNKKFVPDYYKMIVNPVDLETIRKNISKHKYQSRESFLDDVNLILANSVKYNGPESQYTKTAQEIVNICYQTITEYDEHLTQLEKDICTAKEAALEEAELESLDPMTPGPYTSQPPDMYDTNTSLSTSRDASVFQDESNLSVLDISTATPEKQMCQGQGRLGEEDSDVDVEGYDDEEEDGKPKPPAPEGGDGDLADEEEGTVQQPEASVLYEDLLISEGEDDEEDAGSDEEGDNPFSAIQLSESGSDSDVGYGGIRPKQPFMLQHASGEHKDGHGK
PRAK(h), sequence (Q8IW41 whole entry): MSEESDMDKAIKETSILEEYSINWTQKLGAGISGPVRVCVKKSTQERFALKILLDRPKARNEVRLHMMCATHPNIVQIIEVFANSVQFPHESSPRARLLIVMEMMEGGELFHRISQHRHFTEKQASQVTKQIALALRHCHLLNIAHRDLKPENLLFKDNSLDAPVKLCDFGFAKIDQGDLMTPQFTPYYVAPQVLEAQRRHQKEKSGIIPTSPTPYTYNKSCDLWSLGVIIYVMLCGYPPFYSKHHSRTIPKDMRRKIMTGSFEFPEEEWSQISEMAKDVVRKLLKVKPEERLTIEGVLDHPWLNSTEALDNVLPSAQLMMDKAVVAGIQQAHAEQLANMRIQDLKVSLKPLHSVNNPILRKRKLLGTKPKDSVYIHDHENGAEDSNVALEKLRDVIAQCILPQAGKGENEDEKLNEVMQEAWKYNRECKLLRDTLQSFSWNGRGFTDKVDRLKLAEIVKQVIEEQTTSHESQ
CRIK(h), sequence (O14578 whole entry): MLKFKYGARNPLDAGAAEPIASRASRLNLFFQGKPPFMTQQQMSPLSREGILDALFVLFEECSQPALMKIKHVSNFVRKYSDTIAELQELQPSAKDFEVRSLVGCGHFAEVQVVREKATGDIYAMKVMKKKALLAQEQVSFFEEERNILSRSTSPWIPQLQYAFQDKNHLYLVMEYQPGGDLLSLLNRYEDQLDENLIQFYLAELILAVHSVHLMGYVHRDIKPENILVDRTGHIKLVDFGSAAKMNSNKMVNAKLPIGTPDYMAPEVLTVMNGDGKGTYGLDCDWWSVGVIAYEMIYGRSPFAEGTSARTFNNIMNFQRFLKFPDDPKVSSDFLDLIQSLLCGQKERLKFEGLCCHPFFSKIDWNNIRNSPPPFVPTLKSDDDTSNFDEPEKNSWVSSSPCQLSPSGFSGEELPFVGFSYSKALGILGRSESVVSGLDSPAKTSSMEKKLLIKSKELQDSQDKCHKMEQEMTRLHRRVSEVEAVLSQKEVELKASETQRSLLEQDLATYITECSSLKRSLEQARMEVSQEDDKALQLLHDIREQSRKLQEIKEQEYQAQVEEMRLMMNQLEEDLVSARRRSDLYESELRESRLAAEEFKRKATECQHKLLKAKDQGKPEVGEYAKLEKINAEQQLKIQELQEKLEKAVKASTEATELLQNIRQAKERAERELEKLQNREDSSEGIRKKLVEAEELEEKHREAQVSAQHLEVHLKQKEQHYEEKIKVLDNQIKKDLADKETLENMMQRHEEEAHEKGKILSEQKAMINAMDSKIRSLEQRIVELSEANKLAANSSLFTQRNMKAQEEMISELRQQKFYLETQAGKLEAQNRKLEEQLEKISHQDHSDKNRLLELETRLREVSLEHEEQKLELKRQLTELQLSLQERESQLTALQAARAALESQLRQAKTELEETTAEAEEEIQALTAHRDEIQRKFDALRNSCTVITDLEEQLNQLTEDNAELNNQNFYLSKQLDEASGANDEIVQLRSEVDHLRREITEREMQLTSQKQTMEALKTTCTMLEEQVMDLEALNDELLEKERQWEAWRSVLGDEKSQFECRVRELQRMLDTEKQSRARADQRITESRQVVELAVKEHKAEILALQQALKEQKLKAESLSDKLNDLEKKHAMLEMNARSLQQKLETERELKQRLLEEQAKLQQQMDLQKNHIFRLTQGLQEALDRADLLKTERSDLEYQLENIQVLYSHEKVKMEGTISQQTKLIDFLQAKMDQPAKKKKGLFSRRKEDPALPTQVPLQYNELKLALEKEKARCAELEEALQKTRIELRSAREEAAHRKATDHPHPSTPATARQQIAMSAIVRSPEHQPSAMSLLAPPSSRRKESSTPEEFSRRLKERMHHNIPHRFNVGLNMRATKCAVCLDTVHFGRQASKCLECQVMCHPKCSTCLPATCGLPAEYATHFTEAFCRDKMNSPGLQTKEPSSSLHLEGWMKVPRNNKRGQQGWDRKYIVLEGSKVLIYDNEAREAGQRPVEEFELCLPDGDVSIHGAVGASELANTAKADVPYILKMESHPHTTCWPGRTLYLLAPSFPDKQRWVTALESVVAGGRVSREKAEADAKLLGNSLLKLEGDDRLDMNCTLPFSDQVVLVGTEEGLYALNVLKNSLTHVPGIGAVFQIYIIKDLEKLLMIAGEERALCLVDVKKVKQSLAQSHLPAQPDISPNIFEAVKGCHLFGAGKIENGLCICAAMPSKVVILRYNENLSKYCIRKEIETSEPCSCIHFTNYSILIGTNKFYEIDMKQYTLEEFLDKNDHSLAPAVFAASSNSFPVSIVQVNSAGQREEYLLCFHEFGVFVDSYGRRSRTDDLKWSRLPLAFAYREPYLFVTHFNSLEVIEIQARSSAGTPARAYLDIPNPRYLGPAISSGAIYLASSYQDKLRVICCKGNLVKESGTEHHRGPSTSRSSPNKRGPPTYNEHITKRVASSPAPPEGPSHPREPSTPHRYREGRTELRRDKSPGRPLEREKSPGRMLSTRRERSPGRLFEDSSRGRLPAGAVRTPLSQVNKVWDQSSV
DCAMKL3(h), sequence (Q9C098 whole entry): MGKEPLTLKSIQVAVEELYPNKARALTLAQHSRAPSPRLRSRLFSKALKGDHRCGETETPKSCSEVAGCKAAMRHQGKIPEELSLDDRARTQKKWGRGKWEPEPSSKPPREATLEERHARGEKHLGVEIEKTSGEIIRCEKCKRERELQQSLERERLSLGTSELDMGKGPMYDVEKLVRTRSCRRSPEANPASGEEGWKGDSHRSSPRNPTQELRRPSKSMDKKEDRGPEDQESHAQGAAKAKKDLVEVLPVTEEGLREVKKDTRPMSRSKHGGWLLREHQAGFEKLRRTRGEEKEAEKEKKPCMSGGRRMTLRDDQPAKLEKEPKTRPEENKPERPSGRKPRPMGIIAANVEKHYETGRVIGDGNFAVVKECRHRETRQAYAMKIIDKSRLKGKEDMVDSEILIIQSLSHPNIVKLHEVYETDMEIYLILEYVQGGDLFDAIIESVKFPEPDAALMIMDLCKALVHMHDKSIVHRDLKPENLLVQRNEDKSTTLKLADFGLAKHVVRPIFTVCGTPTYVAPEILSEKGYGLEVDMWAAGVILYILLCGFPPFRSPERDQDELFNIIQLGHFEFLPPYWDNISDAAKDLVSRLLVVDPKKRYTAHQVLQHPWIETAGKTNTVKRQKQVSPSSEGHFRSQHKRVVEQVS

With `COc1ccc(OC)c(NS(=O)(=O)c2ccc(NC(=O)CCSc3ccc(C)cc3)cc2)c1` [Compound A41] the “primary tumor regrowth (in vivo BLI)” value (MDA-MB-468 Luc cells; 4 weeks after resection) was “decrease in primary tumor regrowth”, the “ex vivo luminescence intensity of femur, ovaries, and uterus” value (MDA-MB-468 Luc cells; 4 weeks post resection) was “significantly lower in A41-treated than in control mice” and the “metastasis frequency (leg bones, lungs, kidneys, ovaries, uterus; ex vivo BLI)” value (MDA-MB-468 Luc cells; 4 weeks post resection) was “significantly higher frequency in control than in A41-treated mice”. The “weight of the mice” value (MDA-MB-468 Luc cells; 4 weeks, vs vehicle) was “no difference between the two groups”, the “% inh.” value (Melanocortin MC4) was 8% and the “Activity(%)” value (ARK5(h)) was 106%. For the same compound, the “Activity(%)” value (Blk(m)) was 87%, the “Activity(%)” value (CDK1/cyclinB(h)) was 96% and the “Activity(%)” value (CDK2/cyclinE(h)) was 100%. The “Activity(%)” value (CRIK(h)) was 106%, the “Activity(%)” value (DCAMKL3(h)) was 104% and the “Activity(%)” value (DYRK1B(h)) was 96%. For the same compound, the “Activity(%)” value (EphA1(h)) was 87%, the “Activity(%)” value (FGFR1(h)) was 83% and the “Activity(%)” value (Flt1(h)) was 103%. The “Activity(%)” value (IKKα(h)) was 107%, the “Activity(%)” value (Mnk2(h)) was 107% and the “Activity(%)” value (PKD2(h)) was 100%. The “Activity(%)” value (PRAK(h)) was 88%, the “Activity(%)” value (SAPK4(h)) was 104% and the “Activity(%)” value (TAF1L(h)) was 110%. For the same compound, the “Activity(%)” value (TLK2(h)) was 101%, the “Activity(%)” value (ZAK(h)) was 109% and the binding (RHOA) was “No binding was measured”.
